inhibition, IC50 and Activity data for one compound are collected here from ChEMBL document CHEMBL1255533, “PKI-179: an orally efficacious dual phosphatidylinositol-3-kinase (PI3K)/mammalian target of rapamycin (mTOR) inhibitor” (Bioorg Med Chem Lett, 2010).

Experiment [1] deals with Mus musculus. Kind of experiment: In vivo inhibition of mTORC1 in mouse bearing human MDA-MB-361 cells assessed as inhibition of S6K phosphorylation at 50 mg/kg, po. The class given is functional, organism-based. Also on record: dose 50 mg/kg.
Experiment [2] has as its target Serine/threonine-protein kinase mTOR (Homo sapiens, UniProt P42345). Kind of experiment: Inhibition of mTOR.
Experiment [3] addresses Phosphatidylinositol 4,5-bisphosphate 3-kinase catalytic subunit gamma isoform (Homo sapiens, UniProt P48736). Kind of experiment: Inhibition of PI3K-gamma.
The target of experiment [4] is Phosphatidylinositol 4,5-bisphosphate 3-kinase catalytic subunit alpha isoform (Homo sapiens, UniProt P42336, E545K). Kind of experiment: Inhibition of PI3K-alpha E545K mutant.
Sequence of Phosphatidylinositol 4,5-bisphosphate 3-kinase catalytic subunit alpha isoform (P42336 whole entry E545K, canonical isoform): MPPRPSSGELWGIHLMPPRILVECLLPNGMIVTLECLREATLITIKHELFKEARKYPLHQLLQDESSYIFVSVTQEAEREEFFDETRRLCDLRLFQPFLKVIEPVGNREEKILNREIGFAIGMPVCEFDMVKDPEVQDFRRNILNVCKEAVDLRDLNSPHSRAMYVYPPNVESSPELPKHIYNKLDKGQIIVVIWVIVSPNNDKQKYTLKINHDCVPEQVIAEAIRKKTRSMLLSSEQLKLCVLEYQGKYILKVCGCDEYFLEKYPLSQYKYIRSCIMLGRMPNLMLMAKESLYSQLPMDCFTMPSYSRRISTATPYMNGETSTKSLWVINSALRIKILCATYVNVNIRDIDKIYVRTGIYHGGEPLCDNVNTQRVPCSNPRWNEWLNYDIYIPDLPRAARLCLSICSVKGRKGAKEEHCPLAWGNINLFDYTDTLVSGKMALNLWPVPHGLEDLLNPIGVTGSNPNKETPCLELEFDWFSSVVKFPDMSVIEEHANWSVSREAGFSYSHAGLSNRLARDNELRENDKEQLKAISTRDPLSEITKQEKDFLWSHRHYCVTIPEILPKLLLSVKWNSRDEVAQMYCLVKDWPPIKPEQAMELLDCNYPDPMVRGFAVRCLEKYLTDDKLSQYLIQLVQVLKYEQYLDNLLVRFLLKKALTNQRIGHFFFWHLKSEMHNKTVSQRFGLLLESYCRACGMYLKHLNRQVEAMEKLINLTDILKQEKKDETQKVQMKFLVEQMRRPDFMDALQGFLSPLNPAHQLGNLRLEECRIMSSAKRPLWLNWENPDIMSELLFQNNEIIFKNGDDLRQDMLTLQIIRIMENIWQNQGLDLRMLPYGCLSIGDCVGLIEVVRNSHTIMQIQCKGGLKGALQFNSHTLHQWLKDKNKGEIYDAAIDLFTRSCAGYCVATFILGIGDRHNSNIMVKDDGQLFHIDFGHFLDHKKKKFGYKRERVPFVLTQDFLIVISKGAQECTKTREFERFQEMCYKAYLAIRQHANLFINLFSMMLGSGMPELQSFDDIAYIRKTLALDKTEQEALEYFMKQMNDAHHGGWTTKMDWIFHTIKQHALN
The target in another experiment is Cytochrome P450 2C19 (Homo sapiens, UniProt P33261). Nature of the experiment: Inhibition of CYP2C19. The class given is ADME.
Sequence of Cytochrome P450 2C19 (P33261 whole entry): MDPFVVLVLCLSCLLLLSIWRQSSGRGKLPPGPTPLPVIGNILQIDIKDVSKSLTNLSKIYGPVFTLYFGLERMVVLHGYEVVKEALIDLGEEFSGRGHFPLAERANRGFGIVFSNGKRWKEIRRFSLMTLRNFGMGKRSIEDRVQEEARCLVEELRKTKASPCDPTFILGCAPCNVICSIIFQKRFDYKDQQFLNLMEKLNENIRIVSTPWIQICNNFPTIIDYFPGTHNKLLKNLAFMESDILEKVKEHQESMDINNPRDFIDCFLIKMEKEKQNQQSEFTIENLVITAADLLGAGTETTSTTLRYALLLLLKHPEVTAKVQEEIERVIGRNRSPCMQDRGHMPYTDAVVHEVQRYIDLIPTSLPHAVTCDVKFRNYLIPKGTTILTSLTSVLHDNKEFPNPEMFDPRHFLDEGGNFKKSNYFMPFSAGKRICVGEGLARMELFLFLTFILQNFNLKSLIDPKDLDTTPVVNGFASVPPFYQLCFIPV
In a further experiment the test system is PC-3. Kind of experiment: Antiproliferative activity against human PC3 cells. The class given is functional, cell-based.
Experiment [5] addresses T1, Phosphatidylinositol 4,5-bisphosphate 3-kinase catalytic subunit delta isoform (Homo sapiens, UniProt O00329).
T1 sequence (O00329 whole entry): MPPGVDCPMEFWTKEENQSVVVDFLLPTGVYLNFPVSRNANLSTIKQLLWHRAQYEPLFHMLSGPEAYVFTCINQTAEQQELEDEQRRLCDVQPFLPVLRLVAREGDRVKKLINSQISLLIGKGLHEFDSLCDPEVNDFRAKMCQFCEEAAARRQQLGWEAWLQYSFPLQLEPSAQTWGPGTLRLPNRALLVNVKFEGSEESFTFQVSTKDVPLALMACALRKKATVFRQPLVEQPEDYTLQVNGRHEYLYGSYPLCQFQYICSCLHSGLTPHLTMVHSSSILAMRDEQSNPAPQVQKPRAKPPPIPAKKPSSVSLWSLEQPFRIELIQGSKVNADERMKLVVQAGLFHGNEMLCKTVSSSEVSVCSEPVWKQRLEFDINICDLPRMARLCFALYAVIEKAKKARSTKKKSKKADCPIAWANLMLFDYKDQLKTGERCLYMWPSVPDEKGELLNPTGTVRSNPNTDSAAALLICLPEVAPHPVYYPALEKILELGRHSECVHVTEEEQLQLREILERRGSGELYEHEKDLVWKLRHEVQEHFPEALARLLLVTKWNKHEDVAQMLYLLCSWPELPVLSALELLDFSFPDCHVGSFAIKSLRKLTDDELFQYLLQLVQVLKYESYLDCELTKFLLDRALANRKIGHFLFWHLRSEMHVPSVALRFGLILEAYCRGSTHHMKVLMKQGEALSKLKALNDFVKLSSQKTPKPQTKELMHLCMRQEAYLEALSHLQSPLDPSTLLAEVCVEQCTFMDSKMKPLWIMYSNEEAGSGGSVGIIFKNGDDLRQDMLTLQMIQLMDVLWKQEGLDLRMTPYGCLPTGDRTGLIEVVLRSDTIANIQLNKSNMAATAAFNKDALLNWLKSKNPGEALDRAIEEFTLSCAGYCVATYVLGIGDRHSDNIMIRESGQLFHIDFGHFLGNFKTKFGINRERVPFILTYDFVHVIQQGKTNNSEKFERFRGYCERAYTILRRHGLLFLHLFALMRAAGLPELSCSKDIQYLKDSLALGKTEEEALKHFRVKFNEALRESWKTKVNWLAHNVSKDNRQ
Kind of experiment: Inhibition of PI3K-delta.

Experiment [6] deals with Mus musculus. Nature of the experiment: In vivo inhibition of mTORC1 in mouse bearing human MDA-MB-361 cells assessed as inhibition of S6 phosphorylation at 50 mg/kg, po. The class given is functional, organism-based. Also on record: dose 50 mg/kg.
The target in another experiment is Cytochrome P450 2D6 (Homo sapiens, UniProt P10635). Nature of the experiment: Inhibition of CYP2D6. The class given is ADME.
Sequence of Cytochrome P450 2D6 (P10635 whole entry): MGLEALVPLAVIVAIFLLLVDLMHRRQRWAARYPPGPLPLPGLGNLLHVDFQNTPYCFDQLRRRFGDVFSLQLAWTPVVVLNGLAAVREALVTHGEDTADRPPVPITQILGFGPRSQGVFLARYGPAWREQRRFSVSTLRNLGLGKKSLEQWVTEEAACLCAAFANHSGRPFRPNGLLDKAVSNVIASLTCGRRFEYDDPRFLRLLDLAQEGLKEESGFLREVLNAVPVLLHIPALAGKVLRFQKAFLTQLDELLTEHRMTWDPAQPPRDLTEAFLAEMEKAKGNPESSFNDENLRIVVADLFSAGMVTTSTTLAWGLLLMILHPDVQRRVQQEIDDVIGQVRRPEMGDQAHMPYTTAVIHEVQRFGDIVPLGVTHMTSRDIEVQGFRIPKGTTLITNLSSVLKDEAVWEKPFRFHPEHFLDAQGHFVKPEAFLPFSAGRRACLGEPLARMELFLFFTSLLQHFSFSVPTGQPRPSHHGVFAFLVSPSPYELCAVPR
Experiment [7] has as its system MDA-MB-361. Nature of the experiment: Antiproliferative activity against human MDA-MB-361 cells. The class given is functional, cell-based.
Experiment [8] relates to MDA-MB-361. Nature of the experiment: Induction of apoptosis in human MDA-MB-361 cells assessed as PARP cleavage after 4 hrs. The class given is functional, cell-based.
Experiment [9] concerns the target Phosphatidylinositol 4,5-bisphosphate 3-kinase catalytic subunit beta isoform (Homo sapiens, UniProt P42338). Kind of experiment: Inhibition of PI3K-beta.

Calls of active or inactive are those of the source. The calls are words filed in the database; no cut-off is given here.

Sequence of Phosphatidylinositol 4,5-bisphosphate 3-kinase catalytic subunit beta isoform (P42338 whole entry, canonical isoform): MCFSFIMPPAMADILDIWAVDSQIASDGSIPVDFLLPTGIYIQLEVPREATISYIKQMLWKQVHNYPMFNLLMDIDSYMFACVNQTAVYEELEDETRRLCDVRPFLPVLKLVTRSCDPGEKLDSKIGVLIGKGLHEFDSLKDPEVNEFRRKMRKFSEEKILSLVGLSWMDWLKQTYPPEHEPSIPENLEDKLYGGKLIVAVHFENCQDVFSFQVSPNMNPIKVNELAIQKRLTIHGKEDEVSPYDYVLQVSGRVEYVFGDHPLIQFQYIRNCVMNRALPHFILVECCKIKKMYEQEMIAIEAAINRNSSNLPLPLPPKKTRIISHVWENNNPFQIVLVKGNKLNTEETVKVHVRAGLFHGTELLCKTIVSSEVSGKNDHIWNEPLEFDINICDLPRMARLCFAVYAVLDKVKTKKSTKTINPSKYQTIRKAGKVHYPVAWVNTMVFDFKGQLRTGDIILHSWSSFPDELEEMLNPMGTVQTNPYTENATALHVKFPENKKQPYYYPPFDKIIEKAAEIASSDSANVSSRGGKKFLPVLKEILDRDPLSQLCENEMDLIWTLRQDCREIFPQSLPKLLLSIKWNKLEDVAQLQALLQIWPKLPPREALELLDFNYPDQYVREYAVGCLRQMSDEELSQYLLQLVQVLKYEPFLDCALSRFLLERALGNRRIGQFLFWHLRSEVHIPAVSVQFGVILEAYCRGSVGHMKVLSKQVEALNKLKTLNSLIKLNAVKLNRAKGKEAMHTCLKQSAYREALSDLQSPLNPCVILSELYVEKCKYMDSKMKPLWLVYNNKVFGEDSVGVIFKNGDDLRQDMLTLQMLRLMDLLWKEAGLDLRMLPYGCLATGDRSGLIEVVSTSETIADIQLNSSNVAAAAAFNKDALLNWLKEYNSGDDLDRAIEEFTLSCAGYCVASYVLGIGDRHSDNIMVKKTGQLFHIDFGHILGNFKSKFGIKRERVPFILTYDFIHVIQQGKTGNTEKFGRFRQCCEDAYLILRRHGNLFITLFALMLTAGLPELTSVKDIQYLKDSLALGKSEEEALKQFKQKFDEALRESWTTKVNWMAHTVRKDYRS
Sequence of Phosphatidylinositol 4,5-bisphosphate 3-kinase catalytic subunit gamma isoform (P48736 whole entry, canonical isoform): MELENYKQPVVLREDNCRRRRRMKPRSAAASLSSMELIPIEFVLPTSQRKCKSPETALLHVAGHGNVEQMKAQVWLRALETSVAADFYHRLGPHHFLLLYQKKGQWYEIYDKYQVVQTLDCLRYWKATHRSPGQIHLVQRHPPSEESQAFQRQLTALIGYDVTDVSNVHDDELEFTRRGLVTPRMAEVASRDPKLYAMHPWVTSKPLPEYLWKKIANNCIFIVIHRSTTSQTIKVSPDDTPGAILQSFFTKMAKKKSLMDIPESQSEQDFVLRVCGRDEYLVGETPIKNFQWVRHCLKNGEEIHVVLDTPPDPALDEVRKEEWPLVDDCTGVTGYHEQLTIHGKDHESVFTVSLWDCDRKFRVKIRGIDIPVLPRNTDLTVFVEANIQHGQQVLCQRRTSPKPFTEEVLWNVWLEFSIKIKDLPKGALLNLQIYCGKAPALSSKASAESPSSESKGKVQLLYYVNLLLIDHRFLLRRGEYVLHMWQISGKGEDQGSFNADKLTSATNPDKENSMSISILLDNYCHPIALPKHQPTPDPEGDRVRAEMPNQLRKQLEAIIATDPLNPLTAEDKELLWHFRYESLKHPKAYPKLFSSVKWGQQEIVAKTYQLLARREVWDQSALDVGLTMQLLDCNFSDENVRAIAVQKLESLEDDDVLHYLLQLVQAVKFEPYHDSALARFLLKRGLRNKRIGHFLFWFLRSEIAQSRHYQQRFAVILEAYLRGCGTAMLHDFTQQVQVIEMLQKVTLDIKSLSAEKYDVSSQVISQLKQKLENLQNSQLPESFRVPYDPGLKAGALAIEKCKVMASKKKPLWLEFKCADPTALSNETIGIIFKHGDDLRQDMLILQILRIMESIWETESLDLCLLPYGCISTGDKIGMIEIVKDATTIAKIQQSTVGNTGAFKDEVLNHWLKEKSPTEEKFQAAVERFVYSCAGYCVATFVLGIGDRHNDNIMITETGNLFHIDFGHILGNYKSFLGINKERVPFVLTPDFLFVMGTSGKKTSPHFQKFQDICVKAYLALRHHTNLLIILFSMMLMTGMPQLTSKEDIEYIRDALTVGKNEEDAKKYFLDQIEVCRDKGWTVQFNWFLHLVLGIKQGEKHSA

Turning to `O=C(Nc1ccncc1)Nc1ccc(-c2nc(N3CCOCC3)nc(N3C4CCC3COC4)n2)cc1` [PKI-179], the inhibition entry in the experiment on Mus musculus [1] and in the experiment on Mus musculus [6] was “Active” each time. Also, the IC50 in experiment [2] was 0.42 nM; in experiment [3] it was 74 nM; in experiment [4], 14 nM; against Cytochrome P450 2C19, above 30000 nM; with PC-3 it was 29 nM; in experiment [5], 77 nM. Besides, the IC50 against Cytochrome P450 2D6 is above 30000 nM; with MDA-MB-361 [7] it was 22 nM; in experiment [9], 24 nM. Also, the result in the experiment with MDA-MB-361 [8] was Active.
